Measurements as given in ChEMBL document CHEMBL1201862, “PubChem BioAssay data set” (2004).
One block for each compound: values may come before it. Calls of active or inactive are those of the source.

Experiments:
[1] = molecular target: T1, G-protein coupled receptor 55 (Homo sapiens, UniProt Q9Y2T6); experiment: SAR Analysis of Selective Antagonists of GPR55 using an Image-Based Assay - Set 4. [Related pubchem assays (depositor defined):AID2013, AID2026]; type: functional
Cannabinoid receptor 1 [2] = molecular target: T2, Cannabinoid receptor 1 (Homo sapiens, UniProt P21554); experiment: SAR analysis of agonists of the Cannabinoid Receptor 1 using an Image-Based Assay - Set 4. [Related pubchem assays (depositor defined):AID2013, AID2026]; type: functional
Cannabinoid receptor 1 [3] = molecular target: T2, Cannabinoid receptor 1; experiment: SAR analysis of antagonists of the Cannabinoid Receptor 1 using an Image-Based Assay - Set 4. [Related pubchem assays (depositor defined):AID2013, AID2026]; type: functional
Cannabinoid receptor 2 [4] = molecular target: T3, Cannabinoid receptor 2 (Homo sapiens, UniProt P34972); experiment: SAR analysis of antagonists of the Cannabinoid Receptor 2 using an Image-Based Assay - Set 3. [Related pubchem assays (depositor defined):AID2013, AID2026]; type: functional
Cannabinoid receptor 2 [5] = molecular target: T3, Cannabinoid receptor 2; experiment: SAR analysis of agonists of the Cannabinoid Receptor 2 using an Image-Based Assay - Set 3. [Related pubchem assays (depositor defined):AID2013, AID2026]; type: functional
[6] = molecular target: T4, G-protein coupled receptor 35 (Homo sapiens, UniProt Q9HC97); experiment: SAR analysis of Antagonists of the GPR35 Receptor using an Image-Based Assay - Set 6. [Related pubchem assays (depositor defined):AID2013, AID2026]; type: functional
[7] = molecular target: T4, G-protein coupled receptor 35; experiment: SAR analysis of Agonists of the GPR35 Receptor using an Image-Based Assay - Set 4. [Related pubchem assays (depositor defined):AID2013, AID2026]; type: functional
[8] = toxicity toward cultured mammalian cells – cell-based, plate reader, cherry-pick samples, cytotoxicity control, dose response (AID 504397); type: functional
[9] = viability of uninfected HEp-2 cells – cell-based, HTS, cytotoxicity control for RSV inhibitor project, dose response (AID 2410); type: functional; settings: human respiratory syncytial virus
HeLa = experiment: ATP-based viability loss in HeLa cells – cell-based, CellTiter-Glo luminescence, cherry-pick samples, cytotoxicity control for MITF activator project, dose response (AID 540259); type: functional; settings: Homo sapiens
[10] = molecular target: Sphingosine 1-phosphate receptor 4 (Homo sapiens, UniProt O95977); experiment: Fluorescence dose response cell-based high throughput screening assay for agonists of the Sphingosine 1-Phosphate Receptor 4 (S1P4). [Related pubchem assays: 1509 (Primary screen.), 1523 (Confirmation screen in triplicates.)]; type: functional
[11] = molecular target: Sphingosine 1-phosphate receptor 1 (Homo sapiens, UniProt P21453); experiment: Fluorescence-based counterscreen assay for S1P4 agonists: Cell-based dose response high throughput screening assay to identify agonists of the Sphingosine 1-Phosphate Receptor 1 (S1P1). [Related pubchem assays (depositor defined):AID1509, AID1523, AID1801, AID463107, AID463118, AID463119, AID463122, AID463123, AID463129, AID463225, AID504400, AID504460]; type: functional
Cannabinoid receptor 2 [12] = molecular target: T3, Cannabinoid receptor 2; experiment: SAR analysis of antagonists of the Cannabinoid Receptor 2 using an Image-Based Assay. [Related pubchem assays (depositor defined):AID2013, AID2026]; type: functional
Cannabinoid receptor 2 [13] = molecular target: T3, Cannabinoid receptor 2; experiment: SAR analysis of agonists of the Cannabinoid Receptor 2 using an Image-Based Assay. [Related pubchem assays (depositor defined):AID2013, AID2026]; type: functional
[14] = molecular target: T4, G-protein coupled receptor 35; experiment: SAR analysis of Agonists of the GPR35 Receptor using an Image-Based Assay - Set 2. [Related pubchem assays (depositor defined):AID2013, AID2026]; type: functional
Cannabinoid receptor 1 [15] = molecular target: T2, Cannabinoid receptor 1; experiment: SAR analysis of agonists of the Cannabinoid Receptor 1 using an Image-Based Assay - Set 2. [Related pubchem assays (depositor defined):AID2013, AID2026]; type: functional
Cannabinoid receptor 1 [16] = molecular target: T2, Cannabinoid receptor 1; experiment: SAR analysis of antagonists of the Cannabinoid Receptor 1 using an Image-Based Assay - Set 2. [Related pubchem assays (depositor defined):AID2013, AID2026]; type: functional
[17] = molecular target: T1, G-protein coupled receptor 55; experiment: inhibition of LPI-stimulated GPR55 beta-arrestin translocation – imaging, U2OS, beta-arrestin-GFP, LPI agonist, primary screen (AID 2013); type: functional;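 note: antagonist potency measured as reduced agonist-driven arrestin aggregation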
[18] = molecular target: T4, G-protein coupled receptor 35; experiment: SAR analysis of Antagonists of the GPR35 Receptor using an Image-Based Assay - Set 3. [Related pubchem assays (depositor defined):AID2013, AID2026]; type: functional
[19] = molecular target: T1, G-protein coupled receptor 55; experiment: blockade of LPI-induced GPR55 arrestin translocation – imaging, U2OS, beta-arrestin-GFP, LPI agonist, set 2, SAR follow-up (AID 2820); type: functional
[20] = molecular target: T5, Tyrosine-protein phosphatase non-receptor type 22 (Homo sapiens, UniProt Q9Y2R2); experiment: PTPN22 lymphoid phosphatase activity blockers – biochemical, fluorescence intensity, uHTS (AID 1779)
T5 sequence (Q9Y2R2 whole entry): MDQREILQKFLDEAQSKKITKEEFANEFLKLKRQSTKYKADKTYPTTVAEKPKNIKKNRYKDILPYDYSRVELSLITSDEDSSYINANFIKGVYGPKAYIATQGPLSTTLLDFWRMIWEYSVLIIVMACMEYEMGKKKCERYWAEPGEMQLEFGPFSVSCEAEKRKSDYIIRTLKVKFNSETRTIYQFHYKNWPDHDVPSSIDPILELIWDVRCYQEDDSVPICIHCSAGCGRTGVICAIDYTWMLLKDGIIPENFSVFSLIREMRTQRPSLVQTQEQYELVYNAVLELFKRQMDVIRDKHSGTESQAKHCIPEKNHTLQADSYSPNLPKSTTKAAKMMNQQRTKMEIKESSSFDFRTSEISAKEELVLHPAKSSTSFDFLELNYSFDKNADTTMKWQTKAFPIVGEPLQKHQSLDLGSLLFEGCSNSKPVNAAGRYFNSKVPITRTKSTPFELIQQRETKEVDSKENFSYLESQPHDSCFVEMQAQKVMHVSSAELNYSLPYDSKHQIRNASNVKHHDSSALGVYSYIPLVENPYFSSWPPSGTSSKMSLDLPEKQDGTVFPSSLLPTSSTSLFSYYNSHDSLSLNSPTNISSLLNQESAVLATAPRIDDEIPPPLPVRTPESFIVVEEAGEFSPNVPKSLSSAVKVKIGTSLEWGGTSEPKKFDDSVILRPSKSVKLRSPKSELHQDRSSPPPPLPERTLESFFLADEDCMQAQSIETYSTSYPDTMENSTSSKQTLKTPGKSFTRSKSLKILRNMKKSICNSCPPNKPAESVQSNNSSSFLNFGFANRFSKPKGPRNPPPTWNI

[21] = molecular target: T5, Tyrosine-protein phosphatase non-receptor type 22; type: functional
[22] = molecular target: T6, Tyrosine-protein phosphatase non-receptor type 7 (Homo sapiens, UniProt P35236); type: functional
T6 sequence (P35236 whole entry): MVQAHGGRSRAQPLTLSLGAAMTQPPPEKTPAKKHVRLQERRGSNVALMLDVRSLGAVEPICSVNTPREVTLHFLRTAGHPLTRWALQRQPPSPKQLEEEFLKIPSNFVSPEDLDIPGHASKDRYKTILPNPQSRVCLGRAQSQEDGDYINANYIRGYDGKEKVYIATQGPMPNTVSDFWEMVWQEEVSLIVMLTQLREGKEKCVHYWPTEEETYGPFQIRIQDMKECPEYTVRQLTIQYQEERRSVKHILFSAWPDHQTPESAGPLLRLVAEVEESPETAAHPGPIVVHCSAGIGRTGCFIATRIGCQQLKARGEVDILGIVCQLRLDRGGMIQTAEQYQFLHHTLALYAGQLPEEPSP

[23] = molecular target: T5, Tyrosine-protein phosphatase non-receptor type 22; experiment: LYP1 Fluorescent Assay using OMFP substrate for In Vitro dose response studies. [Related pubchem assays (depositor defined):AID1779, AID1784, AID435024]
[24] = molecular target: T6, Tyrosine-protein phosphatase non-receptor type 7; experiment: HTS HePTP Fluorescent Assay using OMFP substrate for In Vitro dose response studies. [Related pubchem assays (depositor defined):AID1059, AID1077, AID1784, AID2068, AID2085, AID435032, AID521]; type: functional
[25] = molecular target: T5, Tyrosine-protein phosphatase non-receptor type 22; type: functional; remark: listed apart in the source
[26] = molecular target: Kappa-type opioid receptor (Homo sapiens, UniProt P41145); experiment: SAR analysis of small molecule agonists of the kappa opioid receptor via a luminescent beta-arrestin assay - Set 3. [Related pubchem assays (depositor defined):AID1777, AID1785, AID1786, AID1966, AID2133, AID2136, AID2284, AID2500]; type: functional
Kappa-type opioid receptor, sequence (P41145 whole entry): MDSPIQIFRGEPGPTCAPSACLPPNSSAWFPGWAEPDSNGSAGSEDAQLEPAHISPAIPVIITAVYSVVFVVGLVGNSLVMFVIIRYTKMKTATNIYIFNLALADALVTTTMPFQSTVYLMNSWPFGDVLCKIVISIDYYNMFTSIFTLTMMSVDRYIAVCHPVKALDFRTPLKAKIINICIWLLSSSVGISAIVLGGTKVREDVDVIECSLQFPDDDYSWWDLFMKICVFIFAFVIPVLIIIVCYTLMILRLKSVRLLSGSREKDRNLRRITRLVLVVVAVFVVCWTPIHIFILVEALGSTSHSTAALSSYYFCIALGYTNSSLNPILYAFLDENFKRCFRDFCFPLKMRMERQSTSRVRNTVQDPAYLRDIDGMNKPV

T4 sequence (Q9HC97 whole entry): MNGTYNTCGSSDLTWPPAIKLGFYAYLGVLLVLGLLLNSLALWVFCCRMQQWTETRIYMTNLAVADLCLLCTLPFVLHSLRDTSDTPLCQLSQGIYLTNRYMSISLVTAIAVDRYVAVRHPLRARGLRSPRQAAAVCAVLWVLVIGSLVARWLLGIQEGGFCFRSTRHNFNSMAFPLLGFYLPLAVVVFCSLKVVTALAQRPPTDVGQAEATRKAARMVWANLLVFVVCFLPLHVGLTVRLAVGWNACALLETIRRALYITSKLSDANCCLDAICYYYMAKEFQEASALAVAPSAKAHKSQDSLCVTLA
T1 sequence (Q9Y2T6 whole entry): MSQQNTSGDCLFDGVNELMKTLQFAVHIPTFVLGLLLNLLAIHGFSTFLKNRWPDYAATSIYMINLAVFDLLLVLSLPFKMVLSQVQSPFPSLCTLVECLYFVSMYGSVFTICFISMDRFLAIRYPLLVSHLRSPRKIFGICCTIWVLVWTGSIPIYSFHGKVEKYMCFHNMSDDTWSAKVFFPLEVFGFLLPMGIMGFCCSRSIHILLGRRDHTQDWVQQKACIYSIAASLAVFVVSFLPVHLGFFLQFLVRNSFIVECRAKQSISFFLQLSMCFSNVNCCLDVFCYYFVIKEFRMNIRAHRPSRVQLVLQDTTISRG
T3 sequence (P34972 whole entry): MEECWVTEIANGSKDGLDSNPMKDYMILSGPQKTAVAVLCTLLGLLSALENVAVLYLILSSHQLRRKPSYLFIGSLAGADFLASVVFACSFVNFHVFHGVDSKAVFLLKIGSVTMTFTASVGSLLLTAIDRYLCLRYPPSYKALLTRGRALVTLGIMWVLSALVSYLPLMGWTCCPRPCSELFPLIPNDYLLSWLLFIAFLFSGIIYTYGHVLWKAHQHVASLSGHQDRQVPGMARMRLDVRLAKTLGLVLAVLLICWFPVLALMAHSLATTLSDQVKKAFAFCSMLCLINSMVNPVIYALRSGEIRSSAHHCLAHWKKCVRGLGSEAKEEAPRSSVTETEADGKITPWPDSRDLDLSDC
T2 sequence (P21554 whole entry): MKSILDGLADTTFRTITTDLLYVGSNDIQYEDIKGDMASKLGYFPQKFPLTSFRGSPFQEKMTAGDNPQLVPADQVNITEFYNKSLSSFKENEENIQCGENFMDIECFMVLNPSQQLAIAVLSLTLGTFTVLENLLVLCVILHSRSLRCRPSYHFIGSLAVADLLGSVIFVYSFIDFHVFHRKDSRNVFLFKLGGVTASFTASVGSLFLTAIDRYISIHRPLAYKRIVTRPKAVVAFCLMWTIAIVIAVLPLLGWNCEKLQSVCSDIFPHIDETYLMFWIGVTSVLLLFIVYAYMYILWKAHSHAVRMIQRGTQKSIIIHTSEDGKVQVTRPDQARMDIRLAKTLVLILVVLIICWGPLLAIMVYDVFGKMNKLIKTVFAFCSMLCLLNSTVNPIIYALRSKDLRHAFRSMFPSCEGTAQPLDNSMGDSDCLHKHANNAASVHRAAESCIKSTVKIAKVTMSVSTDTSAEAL
Sphingosine 1-phosphate receptor 4, sequence (O95977 whole entry): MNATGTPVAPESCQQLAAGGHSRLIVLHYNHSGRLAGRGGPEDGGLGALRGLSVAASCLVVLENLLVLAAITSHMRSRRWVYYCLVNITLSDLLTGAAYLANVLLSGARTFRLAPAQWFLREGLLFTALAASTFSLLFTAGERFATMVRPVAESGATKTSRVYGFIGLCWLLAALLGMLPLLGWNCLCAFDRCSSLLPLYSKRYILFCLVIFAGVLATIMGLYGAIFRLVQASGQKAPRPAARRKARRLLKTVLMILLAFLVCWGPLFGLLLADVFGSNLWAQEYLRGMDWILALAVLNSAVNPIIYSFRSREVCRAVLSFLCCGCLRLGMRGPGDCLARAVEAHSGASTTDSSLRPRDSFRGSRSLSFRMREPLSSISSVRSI
Sphingosine 1-phosphate receptor 1, sequence (P21453 whole entry): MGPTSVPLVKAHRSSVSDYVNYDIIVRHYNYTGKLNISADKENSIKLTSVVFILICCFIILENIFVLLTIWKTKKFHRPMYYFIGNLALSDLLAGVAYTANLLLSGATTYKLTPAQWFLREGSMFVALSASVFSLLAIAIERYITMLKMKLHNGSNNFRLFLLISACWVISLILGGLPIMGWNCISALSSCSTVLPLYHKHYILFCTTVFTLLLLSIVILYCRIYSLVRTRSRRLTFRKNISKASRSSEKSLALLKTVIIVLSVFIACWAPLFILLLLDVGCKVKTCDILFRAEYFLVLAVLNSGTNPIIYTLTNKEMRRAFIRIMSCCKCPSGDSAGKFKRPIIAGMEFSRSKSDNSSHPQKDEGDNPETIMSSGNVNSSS

- IC50 [1]: 18.4 µM (inactive)
- EC50 (Cannabinoid receptor 1 [2]): > 32 µM (inactive)
- IC50 (Cannabinoid receptor 1 [3]): 4.14 µM (active)
- IC50 (Cannabinoid receptor 2 [4]): 23.8 µM (inactive)
- EC50 (Cannabinoid receptor 2 [5]): > 32 µM (inactive)
- IC50 [6]: > 32 µM (inactive)
- EC50 [7]: > 32 µM (inactive)
SMILES: CCOc1ccc(-c2n[nH]c(C)c2-c2ccccc2)c(O)c1

- IC50 (Cannabinoid receptor 2 [12]): > 32 µM (inactive)
- EC50 (Cannabinoid receptor 2 [13]): > 32 µM (inactive)
- EC50 [14]: > 32 µM (inactive)
- EC50 (Cannabinoid receptor 1 [15]): > 32 µM (inactive)
- IC50 (Cannabinoid receptor 1 [16]): > 32 µM (inactive)
- IC50 [17]: 1.76 µM (active)
- IC50 [18]: > 32 µM (inactive)
- IC50 [19]: 2.36 µM (active)
SMILES: COC(=O)C1=C(N)c2ccccc2C1(C#N)c1ccccc1 (configuration not stated)

More lines, now with the values behind:

SMILES: COc1cccc2sc3ccc(C#CC4(O)CCCCC4)cc3c(=O)c12
- AC50 [8]: 85.7 µM (active)
- CC50 [9]: 13.9 µM (active)
- AC50 (HeLa): 39.6 µM (active)

SMILES: Cn1c(-c2cc3ccc(OC(=O)C(C)(C)C)cc3oc2=O)nc2ccccc21
- EC50 [10]: 37 µM (not active)
- EC50 [11]: 33.5 µM (inactive)

SMILES: O=C(N/N=C/c1ccc2c(c1)OCO2)c1cc(-c2ccncc2)nc2ccccc12
- IC50 [20]: > 99 µM (inactive)
- IC50 [21]: > 79.4 µM (inactive)
- IC50 [22]: > 79.4 µM (inactive)
- IC50 [23]: > 99 µM (inactive)
- IC50 [24]: > 99 µM (inactive)
- IC50 [25]: > 79.4 µM (inactive)

SMILES: FC(F)(F)c1cc(CSc2nnc(-c3ccc(Br)cc3)n2Cc2ccco2)ccc1Cl
- EC50 [26]: 11 µM (inactive)
